From ChEMBL document CHEMBL1201862, “PubChem BioAssay data set” (2004)
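Results reflect a 48-hour exposure of cells in 96-well plates to compound at five concentrations. GI50 = concentration required for 50% inhibition of growth.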 Calls of active or inactive are those of the source. Rule as the data show it: active = GI50 up to about 1.1 µM and inactive = higher.

Legend:
Experiment in all cases: NCI-60 cell line screen, 48 h
[1] = system: SN12C
[2] = system: Malme-3M
[3] = system: HCC 2998
[4] = system: UO-31
[5] = system: SNB-19
[6] = system: NCI-H23
[7] = system: SK-MEL-28
[8] = system: NCI-H522
[9] = system: KM12
[10] = system: SK-MEL-5
[11] = system: IGROV-1
[12] = system: RXF 393
[13] = system: M19-MEL
[14] = system: SF-539
[15] = system: OVCAR-5
[16] = system: CCRF-CEM
[17] = system: M14
[18] = system: HT-29
[19] = system: ACHN
[20] = system: SK-OV-3
[21] = system: LOX IMVI
[22] = system: A549
[23] = system: OVCAR-4
[24] = system: NCI-H460
[25] = system: HOP-62
[26] = system: K562
[27] = system: U-251
[28] = system: SK-MEL-2
[29] = system: EKVX
[30] = system: HOP-92
[31] = system: COLO 205
[32] = system: SF-268
[33] = system: OVCAR-8
[34] = system: HL-60
[35] = system: TK-10
[36] = system: XF498
[37] = system: LXFL 529
[38] = system: UACC-257
[39] = system: SNB-78
[40] = system: MOLT-4
[41] = system: KM-20L2
[42] = system: SW-620
[43] = system: SF-295
[44] = system: DLD-1
[45] = system: RPMI-8226
[46] = system: DMS-114
[47] = system: A498
[48] = system: SNB-75
[49] = system: NCI-H226
[50] = system: CAKI-1
[51] = system: 786-0
[52] = system: OVCAR-3
[53] = system: HCT-15
[54] = system: DMS-273
[55] = system: HCT-116
[56] = system: UACC-62

## CCc1ccccc1NC(=O)C1=C(C)NC(C)=C(C(=O)Nc2ccccc2CC)C1c1ccc2c(c1)OCO2
[1]
  GI50: 41.2 µM (inactive)
[2]
  GI50: 25.3 µM (inactive)
[3]
  GI50: 15.1 µM (inactive)
[4]
  GI50: 18.5 µM (inactive)
[5]
  GI50: 49.3 µM (inactive)
[6]
  GI50: 31.5 µM (inactive)
[7]
  GI50: 32.6 µM (inactive)
[8]
  GI50: 24.1 µM (inactive)
[9]
  GI50: 19.2 µM (inactive)
[10]
  GI50: 23.2 µM (inactive)
[11]
  GI50: 29.4 µM (inactive)
[12]
  GI50: 20 µM (inactive)
[13]
  GI50: 40.9 µM (inactive)
[14]
  GI50: 16.8 µM (inactive)
[15]
  GI50: 27.1 µM (inactive)
[16]
  GI50: 19.5 µM (inactive)
[17]
  GI50: 26.2 µM (inactive)
[18]
  GI50: 31.9 µM (inactive)
[19]
  GI50: 22.8 µM (inactive)
[20]
  GI50: 30.2 µM (inactive)
[21]
  GI50: 24.4 µM (inactive)
[22]
  GI50: 29.1 µM (inactive)
[23]
  GI50: 23.2 µM (inactive)
[24]
  GI50: 34.1 µM (inactive)
[25]
  GI50: 17.1 µM (inactive)
[26]
  GI50: 26.5 µM (inactive)
[27]
  GI50: 26.9 µM (inactive)
[28]
  GI50: 19.2 µM (inactive)
[29]
  GI50: 31.3 µM (inactive)
[30]
  GI50: 13.6 µM (inactive)
[31]
  GI50: 29 µM (inactive)
[32]
  GI50: 25.2 µM (inactive)
[33]
  GI50: 33.7 µM (inactive)
[34]
  GI50: 16.9 µM (inactive)
[35]
  GI50: 47.6 µM (inactive)
[36]
  GI50: 23 µM (inactive)
[37]
  GI50: 31.3 µM (inactive)
[38]
  GI50: 30.9 µM (inactive)
[39]
  GI50: 34 µM (inactive)
[40]
  GI50: 15.4 µM (inactive)
[41]
  GI50: > 10 µM (inactive)
[42]
  GI50: 28.9 µM (inactive)
[43]
  GI50: 33.3 µM (inactive)
[44]
  GI50: 22.7 µM (inactive)
[45]
  GI50: 14.5 µM (inactive)
[46]
  GI50: 22.9 µM (inactive)
[47]
  GI50: 25.1 µM (inactive)
[48]
  GI50: 23.7 µM (inactive)
[49]
  GI50: 24.3 µM (inactive)
[50]
  GI50: 25.2 µM (inactive)
[51]
  GI50: 30.4 µM (inactive)
[52]
  GI50: 22.5 µM (inactive)

## CC(C)(C)C(=O)Nc1ccccc1Br
[1]
  GI50: > 100 µM (inactive)
[2]
  GI50: > 100 µM (inactive)
[3]
  GI50: > 100 µM (inactive)
[4]
  GI50: > 100 µM (inactive)
[5]
  GI50: > 100 µM (inactive)
[7]
  GI50: > 100 µM (inactive)
[9]
  GI50: > 100 µM (inactive)
[10]
  GI50: > 100 µM (inactive)
[11]
  GI50: > 100 µM (inactive)
[12]
  GI50: > 100 µM (inactive)
[13]
  GI50: > 100 µM (inactive)
[15]
  GI50: > 100 µM (inactive)
[16]
  GI50: > 100 µM (inactive)
[17]
  GI50: > 100 µM (inactive)
[18]
  GI50: > 100 µM (inactive)
[19]
  GI50: > 100 µM (inactive)
[53]
  GI50: > 100 µM
[54]
  GI50: > 100 µM (inactive)
[20]
  GI50: > 100 µM (inactive)
[21]
  GI50: > 100 µM (inactive)
[22]
  GI50: > 100 µM (inactive)
[23]
  GI50: > 100 µM (inactive)
[24]
  GI50: > 100 µM (inactive)
[25]
  GI50: > 100 µM (inactive)
[26]
  GI50: > 100 µM (inactive)
[27]
  GI50: > 100 µM (inactive)
[28]
  GI50: > 100 µM (inactive)
[29]
  GI50: > 100 µM (inactive)
[30]
  GI50: > 100 µM (inactive)
[31]
  GI50: > 100 µM (inactive)
[55]
  GI50: > 100 µM (inactive)
[56]
  GI50: > 100 µM (inactive)
[33]
  GI50: > 100 µM (inactive)
[34]
  GI50: > 100 µM (inactive)
[35]
  GI50: > 100 µM (inactive)
[36]
  GI50: > 100 µM (inactive)
[37]
  GI50: > 100 µM (inactive)
[38]
  GI50: > 100 µM (inactive)
[40]
  GI50: > 100 µM (inactive)
[41]
  GI50: > 100 µM (inactive)
[42]
  GI50: > 100 µM (inactive)
[43]
  GI50: > 100 µM (inactive)
[44]
  GI50: > 100 µM (inactive)
[45]
  GI50: > 100 µM (inactive)
[46]
  GI50: > 100 µM (inactive)
[48]
  GI50: > 100 µM (inactive)
[49]
  GI50: > 100 µM (inactive)
[50]
  GI50: > 100 µM (inactive)
[51]
  GI50: > 100 µM (inactive)
[52]
  GI50: > 100 µM (inactive)
